Assay [1] concerns mutant Huntington (HTT) protein. The assay is described as follows: HTT Mutant HTRF iPSC assay (mHTT protein lowering). Conditions: human iPSC derived from a HTT patient with a poly-Q49 mutation. The format is cell-based.
The subject of assay [2] is mHTT protein. The note with it: HD mouse model; cited from earlier work.
In assay [3] the test system is mHTT protein. The note with it: blood samples from SMA Type I patients dosed orally; cited from earlier work.
Assay [4] concerns mHTT protein. Conditions: HD patient cells; cited from earlier work.

Where two headings read alike, the source gives them in different places.

In general, IC50 refers to the midpoint of a concentration-inhibition curve. The low end stands for greater potency in that assay, the high end for weaker potency in that assay.

With `COc1cc2nn(C)cc2cc1NC(=O)c1cc2ccc(N3CCC(N4CCC4)C3)nc2s1` (centres unmarked) [Compound 234, 6-(3-(azetidin-1-yl)pyrrolidin-1-yl)-N-(6-methoxy-2-methyl-2H-indazol-5-yl)thieno[2,3-b]pyridine-2-carboxamide], in assay [1], the IC50 was < 100 nM. The same measure, in the same setting: with `COc1c(NC(=O)c2cc3ccc(N4C[C@@H]5CN(C)C[C@@H]54)nc3s2)cc2cn(C)nc2c1F` [Compound 235, N-(7-fluoro-6-methoxy-2-methyl-2H-indazol-5-yl)-6-((1S,5R)-3-methyl-3,6-diazabicyclo[3.2.0]heptan-6-yl)thieno[2,3-b]pyridine-2-carboxamide] the figure was < 100 nM. Consider `COc1cc2nn(C)cc2cc1NC(=O)c1cc2ccc(N3CC4(CCCN4C)C3)nc2s1` [Compound 236, N-(6-methoxy-2-methyl-2H-indazol-5-yl)-6-(5-methyl-2,5-diazaspiro[3.4]octan-2-yl)thieno[2,3-b]pyridine-2-carboxamide], for which the half-maximal inhibitory concentration (IC50) in assay [1] was < 100 nM. For `Cc1cn2cc(NC(=O)c3cc4ccc(N5CC6CCNC6C5)nc4s3)cc(F)c2n1` (centres unmarked) [Compound 237, N-(8-fluoro-2-methylimidazo[1,2-a]pyridin-6-yl)-6-(hexahydropyrrolo[3,4-b]pyrrol-5(1H)-yl)thieno[2,3-b]pyridine-2-carboxamide], in assay [1], the IC50 was < 100 nM. For `CNC1CCN(c2ccc3cc(C(=O)Nc4cc(F)c5nc(C)cn5c4)sc3n2)C1` (centres unmarked) [Compound 238, N-(8-fluoro-2-methylimidazo[1,2-a]pyridin-6-yl)-6-(3-(methylamino)pyrrolidin-1-yl)thieno[2,3-b]pyridine-2-carboxamide], in assay [1], the IC50 is < 100 nM.

For `CCN1CCN(c2ccc3cc(C(=O)Nc4cn5cc(C)nc5c(C)n4)sc3n2)CC1` [Compound 240, N-(2,8-dimethylimidazo[1,2-a]pyrazin-6-yl)-6-(4-ethylpiperazin-1-yl)thieno[2,3-b]pyridine-2-carboxamide], in assay [1], the IC50 is < 100 nM. For the molecule `Cc1cn2cc(NC(=O)c3cc4ccc(N5CC6CCC(C5)N6C)nc4s3)nc(C)c2n1` [Compound 243, N-(2,8-dimethylimidazo[1,2-a]pyrazin-6-yl)-6-(8-methyl-3,8-diazabicyclo[3.2.1]octan-3-yl)thieno[2,3-b]pyridine-2-carboxamide], the IC50 in assay [1] is < 100 nM.

As to `Cc1cn2cc(NC(=O)c3cc4ccc(N5C[C@H]6CCN[C@H]6C5)nc4s3)cc(F)c2n1` [Compound 245, N-(8-fluoro-2-methylimidazo[1,2-a]pyridin-6-yl)-6-((3aR,6aR)-hexahydropyrrolo[3,4-b]pyrrol-5(1H)-yl)thieno[2,3-b]pyridine-2-carboxamide], the IC50 in assay [1] was < 100 nM. Still for that read-out and setting: with `CN1CCC(c2ccc3nc(C(=O)Nc4cc(F)c5nn(C)cc5c4)sc3n2)CC1` [Compound 246, N-(7-fluoro-2-methyl-2H-indazol-5-yl)-5-(1-methylpiperidin-4-yl)thiazolo[5,4-b]pyridine-2-carboxamide] the figure was 100 to 1000 nM; with `CCN1CCN(c2cnc3cc(C(=O)Nc4cc5cn(C)nc5cc4OC)sc3n2)CC1` [Compound 247, 3-(4-ethylpiperazin-1-yl)-N-(6-methoxy-2-methyl-2H-indazol-5-yl)thieno[2,3-b]pyrazine-6-carboxamide], < 100 nM; with `COc1cc2nn(C)cc2cc1NC(=O)c1cc2ncc(N3CCC4(CN(C)C4)C3)nc2s1` [Compound 248, N-(6-methoxy-2-methyl-2H-indazol-5-yl)-3-(2-methyl-2,6-diazaspiro[3.4]octan-6-yl)thieno[2,3-b]pyrazine-6-carboxamide], 100 to 1000 nM. With `COc1c(NC(=O)c2cc3ccc(C4CCN(C)CC4)nc3s2)cc2cn(C)nc2c1F` [Compound 249, N-(7-fluoro-6-methoxy-2-methyl-2H-indazol-5-yl)-6-(1-methylpiperidin-4-yl)thieno[2,3-b]pyridine-2-carboxamide], the IC50 in assay [1] is < 100 nM. Turning to `Cc1cn2cc(NC(=O)c3cc4ccc(N5CC[C@@H](N(C)C)C5)nc4s3)nc(C(F)F)c2n1` [Compound 250, (R)-N-(8-(difluoromethyl)-2-methylimidazo[1,2-a]pyrazin-6-yl)-6-(3-(dimethylamino)pyrrolidin-1-yl)thieno[2,3-b]pyridine-2-carboxamide], in assay [1], the half-inhibitory concentration (IC50) was < 100 nM. Same read-out and setting: under `CCN1CCN(c2ccc3cc(C(=O)Nc4cn5cc(C)nc5c(C(F)F)n4)sc3n2)CC1` [Compound 253, N-(8-(difluoromethyl)-2-methylimidazo[1,2-a]pyrazin-6-yl)-6-(4-ethylpiperazin-1-yl)thieno[2,3-b]pyridine-2-carboxamide] stands < 100 nM.

`CCOc1cn2nc(C)cc2cc1NC(=O)c1cc2ccc(N3CC4(CCN(C)C4)C3)nc2s1` [Compound 256, N-(6-ethoxy-2-methylpyrazolo[1,5-a]pyridin-5-yl)-6-(6-methyl-2,6-diazaspiro[3.4]octan-2-yl)thieno[2,3-b]pyridine-2-carboxamide]: the 50% inhibitory concentration (IC50) in assay [1] was < 100 nM. Still for that read-out and setting: under `Cc1cn2cc(NC(=O)c3cc4ncc(N5CCC6(CN(C)C6)C5)nc4s3)cc(F)c2n1` [Compound 257, N-(8-fluoro-2-methylimidazo[1,2-a]pyridin-6-yl)-3-(2-methyl-2,6-diazaspiro[3.4]octan-6-yl)thieno[2,3-b]pyrazine-6-carboxamide] stands 100 to 1000 nM; under `Cc1cn2cc(NC(=O)c3cc4ncc(N5CC(C)(N)C5)nc4s3)cc(F)c2n1` [Compound 258, 3-(3-amino-3-methylazetidin-1-yl)-N-(8-fluoro-2-methylimidazo[1,2-a]pyridin-6-yl)thieno[2,3-b]pyrazine-6-carboxamide], < 100 nM.

On to `CCN1CCN(c2ccc3oc(C(=O)Nc4cc5cc(C)nn5cc4OC)cc3n2)CC1` [Compound 259, 5-(4-ethylpiperazin-1-yl)-N-(6-methoxy-2-methylpyrazolo[1,5-a]pyridin-5-yl)furo[3,2-b]pyridine-2-carboxamide], for which, in assay [1], the half-inhibitory concentration (IC50) was in the range of 100 to 1000 nM. In assay [1], `COc1nc(NC(=O)c2cc3nc(C4CCN(C)CC4)ccc3o2)cn2cc(C)nc12` [Compound 262, N-(8-methoxy-2-methylimidazo[1,2-a]pyrazin-6-yl)-5-(1-methylpiperidin-4-yl)furo[3,2-b]pyridine-2-carboxamide] returned an IC50 of 100 to 1000 nM.

For the molecule `COc1cc2nn(C)cc2cc1NC(=O)c1cc2nc(N3CCN(C)CC3)ccc2o1` [Compound 263, N-(6-methoxy-2-methyl-2H-indazol-5-yl)-5-(4-methylpiperazin-1-yl)furo[3,2-b]pyridine-2-carboxamide], the concentration for half-maximal inhibition (IC50) in assay [1] was < 100 nM. Same read-out and setting: under `COc1cc(NC(=O)c2nc3ccc(N4CC5(CCN(C)C5)C4)nc3s2)cn2cc(C)nc12` [Compound 267, N-(8-methoxy-2-methylimidazo[1,2-a]pyridin-6-yl)-5-(6-methyl-2,6-diazaspiro[3.4]octan-2-yl)thiazolo[5,4-b]pyridine-2-carboxamide] stands < 100 nM; under `Cc1cn2cc(NC(=O)c3cc4ncc(N5C[C@@H]6CN(C)C[C@@H]65)nc4s3)cc(F)c2n1` [Compound 268, N-(8-fluoro-2-methyl-imidazo[1,2-a]pyridin-6-yl)-3-[(1S,5R)-3-methyl-3,6-diazabicyclo[3.2.0]heptan-6-yl]thieno[2,3-b]pyrazine-6-carboxamide], 100 to 1000 nM; under `COc1cc2nn(C)cc2cc1NC(=O)c1cc2nc(C3CCN(C)CC3)ccc2o1` [Compound 269, N-(6-methoxy-2-methyl-2H-indazol-5-yl)-5-(1-methylpiperidin-4-yl)furo[3,2-b]pyridine-2-carboxamide], 100 to 1000 nM. Take `CC1(C)CC(Oc2ccc(-c3ccc(-c4cn[nH]c4)cc3O)nn2)CC(C)(C)N1` [branaplam]: the mHTT protein levels entry in assay [2], in assay [3] and in assay [4] was “lowers mHTT protein levels” in each case.

Values taken from patent publication US20260035387A1 (BIOGEN MA INC., priority 2022, published 2026).
